This test has as its system HIF-2α HIS TAG-PASB Domain. Description: HIF-2α Scintillation Proximity Assay (SPA). In kind it is binding. As to the method: The percent inhibition was determined and IC50 values were calculated using the Dotmatics system based on the following equation: % inhibition=[(high control−sample)/(high control−low control)]×100.
Consider `Cc1c(Oc2cc(F)cc(Cl)c2)ccc(S(=O)(=O)C(F)(F)F)c1Cl` [Compound 143, 3-Chloro-1-(3-chloro-5-fluoro-phenoxy)-2-methyl-4-(trifluoromethylsulfonyl)benzene], for which the half-maximal inhibitory concentration (IC50) worked out at 20 nM.
The figure for `Cc1c(Oc2cc(F)cc(C#N)c2)ccc(S(=O)(=O)C(F)(F)F)c1Cl` [Compound 144, 3-Fluoro-5-[3-chloro-2-methyl-4-(trifluoromethylsulfonyl)phenoxy]benzonitrile] is 44 nM.
Regarding `Cc1c(Oc2cc(F)cc(C#N)c2)ccc(S(=O)(=O)C(F)(F)F)c1C=O` [Compound 145, 3-Fluoro-5-[3-formyl-2-methyl-4-(trifluoromethylsulfonyl)phenoxy]benzonitrile], inhibition was half-maximal at 74 nM (IC50).
The figure for `COC(=O)/C=C/c1c(S(=O)(=O)C(F)(F)F)ccc(Oc2cc(F)cc(C#N)c2)c1C` [Compound 147, Methyl (E)-3-[3-(3-cyano-5-fluoro-phenoxy)-2-methyl-6-(trifluoromethylsulfonyl)phenyl]prop-2-enoate] is 110 nM; for `CCOC(=O)/C=C/c1c(S(=O)(=O)C(F)(F)F)ccc(Oc2cc(F)cc(C#N)c2)c1C` [Compound 148, Ethyl (E)-3-(3-(3-cyano-5-fluorophenoxy)-2-methyl-6-((trifluoromethyl)sulfonyl)phenyl)acrylate] it is 220 nM; for `Cc1c(Oc2cc(F)cc(C#N)c2)ccc(S(=O)(=O)C(F)(F)F)c1/C=C/C(=O)NCc1ccccc1` [Compound 149, (E)-N-Benzyl-3-(3-(3-cyano-5-fluorophenoxy)-2-methyl-6-((trifluoromethyl)sulfonyl)phenyl)acrylamide] it is 5700 nM.
The figure for `Cc1c(Oc2cc(F)cc(C#N)c2)ccc(S(=O)(=O)C(F)(F)F)c1/C=C/c1nnco1` [Compound 150, 3-Fluoro-5-[2-methyl-3-[(E)-2-(1,3,4-oxadiazol-2-yl)vinyl]-4-(trifluoromethylsulfonyl)phenoxy]benzonitrile] is 1300 nM; for `Cc1nnc(/C=C/c2c(S(=O)(=O)C(F)(F)F)ccc(Oc3cc(F)cc(C#N)c3)c2C)o1` [Compound 151, 3-Fluoro-5-[2-methyl-3-[(E)-2-(5-methyl-1,3,4-oxadiazol-2-yl)vinyl]-4-(trifluoromethylsulfonyl)phenoxy]benzonitrile] it is 1100 nM.
In turn, `CS(=O)(=O)c1ccc(Oc2cc(F)cc(C#N)c2)c(C#N)c1Cl` [Compound 152, 2-chloro-6-(3-cyano-5-fluorophenoxy)-3-(methylsulfonyl)benzonitrile] registered a concentration for half-maximal inhibition (IC50) of 320 nM. This IC50 lies about 3.4-fold lower than the previous one.
Turning to `N#Cc1c(Oc2cc(F)cc(Cl)c2)ccc(S(=O)(=O)C(F)(F)F)c1F` [Compound 153, 6-(3-chloro-5-fluorophenoxy)-2-fluoro-3-((trifluoromethyl)sulfonyl)benzonitrile], half-maximal inhibition (IC50) was put at 230 nM.
With `N#Cc1c(Oc2cc(F)cc(Cl)c2)ccc(S(=O)(=O)C(F)(F)F)c1NCCO` [Compound 154, 6-(3-Chloro-5-fluoro-phenoxy)-2-(2-hydroxyethylamino)-3-(trifluoromethylsulfonyl)benzonitrile] the figure was 11700 nM; with `O=S(=O)(c1ccc(Oc2ccc(Cl)c(Cl)c2)c(Br)c1)C(F)(F)F` [Compound 169, 2-Bromo-1-(3,4-dichlorophenoxy)-4-((trifluoromethyl)sulfonyl)benzene], 1900 nM; with `O=S(=O)(c1ccc(Oc2cc(Cl)ccc2F)c(Br)c1)C(F)(F)F` [Compound 170, 2-Bromo-1-(5-chloro-2-fluorophenoxy)-4-((trifluoromethyl)sulfonyl)benzene], 1800 nM.
Molecule `Cc1c(Cl)cccc1Oc1ccc(S(=O)(=O)C(F)(F)F)cc1Br` [Compound 171, 1-(2-Bromo-4-((trifluoromethyl)sulfonyl)phenoxy)-3-chloro-2-methylbenzene] came in with a half-maximal inhibitory concentration (IC50) of 1200 nM. This IC50 is about 1.5-fold lower than that of the molecule before.
The figure for `O=S(=O)(c1ccc(Oc2cc(Cl)cc(Cl)c2)c(Br)c1)C(F)(F)F` [Compound 172, 2-Bromo-1-(3,5-dichlorophenoxy)-4-((trifluoromethyl)sulfonyl)benzene] is 310 nM; for `Cc1cc(C)cc(Oc2ccc(S(=O)(=O)C(F)(F)F)cc2Br)c1` [Compound 173, 2-Bromo-1-(3,5-dimethylphenoxy)-4-((trifluoromethyl)sulfonyl)benzene] it is 2000 nM; for `Cc1ccc(Cl)cc1Oc1ccc(S(=O)(=O)C(F)(F)F)cc1Br` [Compound 174, 2-Bromo-1-(5-chloro-2-methylphenoxy)-4-((trifluoromethyl)sulfonyl)benzene] it is 1200 nM.
On to `O=S(=O)(c1ccc(Oc2cc(F)cc(CO)c2)c(Br)c1)C(F)(F)F` [Compound 177, (3-(2-Bromo-4-((trifluoromethyl)sulfonyl)phenoxy)-5-fluorophenyl)methanol], for which the IC50 turned out to be 18000 nM.
With `C/C=C/c1c(S(=O)(=O)C(F)F)ccc(Oc2cc(F)cc(C#N)c2)c1C#N` [Compound 178, (E)-6-(3-Cyano-5-fluorophenoxy)-3-((difluoromethyl)sulfonyl)-2-(prop-1-en-1-yl)benzonitrile] the figure was 920 nM; with `O=S(=O)(c1ccc(Oc2cc(F)cc(Cl)c2)c(Br)c1Cl)C(F)(F)F` [Compound 179, 2-Bromo-3-chloro-1-(3-chloro-5-fluorophenoxy)-4-((trifluoromethyl)sulfonyl)benzene], 23 nM.
The molecule `CS(=N)(=O)c1ccc(Oc2cc(F)cc(Cl)c2)c(C#N)c1Cl` (stereo not shown) [Compound 180, 2-Chloro-6-(3-chloro-5-fluorophenoxy)-3-(S-methylsulfonimidoyl)benzonitrile] returned an IC50 of 9400 nM.
The figure for `O=C1c2c(S(=O)(=O)C(F)F)ccc(Oc3cncc(Cl)c3)c2CC1(F)F` [Compound 182, 4-((5-Chloropyridin-3-yl)oxy)-7-((difluoromethyl)sulfonyl)-2,2-difluoro-2,3-dihydro-1H-inden-1-one] is 380 nM; for `O=S(=O)(c1ccc(Oc2cncc(Cl)c2)c2c1[C@H](O)CC2)C(F)(F)F` [Compound 184, (R)-4-((5-Chloropyridin-3-yl)oxy)-7-((trifluoromethyl)sulfonyl)-2,3-dihydro-1H-inden-1-ol] it is 720 nM.
Turning to `CS(=O)(=NC#N)c1ccc(Oc2cc(F)cc(F)c2)c2c1C(O)CC2` (stereo not shown) [Compound 189, N-((7-(3,5-Difluorophenoxy)-3-hydroxy-2,3-dihydro-1H-inden-4-yl)(methyl)(oxo)-λ^6-sulfanylidene)cyanamide], the half-inhibitory concentration (IC50) amounted to 3200 nM. This IC50 lies about 4.4-fold higher than the previous one.
Molecule `CS(=N)(=O)c1ccc(Oc2cc(F)cc(F)c2)c2c1C(O)CC2` (stereo not shown) [Compound 190, (7-(3,5-Difluorophenoxy)-3-hydroxy-2,3-dihydro-1H-inden-4-yl)(imino)(methyl)-λ^6-sulfanone] came in with an IC50 of 580 nM.
With `O=C1c2c(S(=O)(=O)C(F)F)ccc(Oc3ccc(F)c(Br)c3)c2CC1(F)F` [Compound 193, 4-(3-Bromo-4-fluorophenoxy)-7-((difluoromethyl)sulfonyl)-2,2-difluoro-2,3-dihydro-1H-inden-1-one] the figure was 900 nM; with `O=C1c2c(S(=O)(=O)C(F)F)ccc(Oc3ccc(F)c(F)c3)c2CC1(F)F` [Compound 195, 7-((Difluoromethyl)sulfonyl)-4-(3,4-difluorophenoxy)-2,2-difluoro-2,3-dihydro-1H-inden-1-one], 110 nM; with `Cc1cc(Oc2ccc(S(=O)(=O)C(F)F)c3c2CC(F)(F)C3=O)ccc1F` [Compound 197, 7-((Difluoromethyl)sulfonyl)-2,2-difluoro-4-(4-fluoro-3-methylphenoxy)-2,3-dihydro-1H-inden-1-one], 770 nM.
Regarding `N#Cc1cc(F)cc(Oc2ccc(S(=O)(=O)C(F)F)c3c2CCC3F)c1` (stereo not shown) [Compound 202, 3-((7-((Difluoromethyl)sulfonyl)-1-fluoro-2,3-dihydro-1H-inden-4-yl)oxy)-5-fluorobenzonitrile], inhibition was half-maximal at 680 nM (IC50). The IC50 values of the last two molecules are within 1.5-fold of each other.
Regarding `O=[N+]([O-])c1c(Oc2cc(F)cc(Cl)c2)ccc(C(F)(F)F)c1Cl` [Compound 203, 2-Chloro-4-(3-chloro-5-fluorophenoxy)-3-nitro-1-(trifluoromethyl)benzene], half-maximal inhibition (IC50) required 77 nM. Compared with the last molecule, the IC50 is about 8.8-fold lower.
Regarding `O=[N+]([O-])c1c(Oc2cccc(Cl)c2)ccc(C(F)(F)F)c1Cl` [Compound 204, 2-Chloro-4-(3-chlorophenoxy)-3-nitro-1-(trifluoromethyl)benzene 1,3-dichloro-2-nitro-4-(trifluoromethyl)benzene], the IC50 came out at 210 nM.
With `CCS(=O)(=O)c1ccc(Oc2cc(F)cc(C#N)c2)c2c1C(O)CC2` (stereo not shown) [Compound 205, 3-((7-(Ethylsulfonyl)-1-hydroxy-2,3-dihydro-1H-inden-4-yl)oxy)-5-fluorobenzonitrile] the figure was 2400 nM.
The figure for `N#Cc1cc(F)cc(Oc2ccc(S(=O)(=O)C(F)F)c3c2CC(F)(F)[C@H]3N)c1` [Compound 207, (S)-3-((1-Amino-7-((difluoromethyl)sulfonyl)-2,2-difluoro-2,3-dihydro-1H-inden-4-yl)oxy)-5-fluorobenzonitrile] is 500 nM; for `N#Cc1cc(F)cc(Oc2ccc(S(=O)(=O)C3CCC3)c3c2CCC3O)c1` (stereo not shown) [Compound 208, 3-((7-(Cyclobutylsulfonyl)-1-hydroxy-2,3-dihydro-1H-inden-4-yl)oxy)-5-fluorobenzonitrile] it is > 100000 nM.
Regarding `CO[C@H]1c2c(S(C)(=O)=O)ccc(Oc3cc(F)cc(C#N)c3)c2CC1(F)F` [Compound 210, (S)-3-((2,2-Difluoro-1-methoxy-7-(methylsulfonyl)-2,3-dihydro-1H-inden-4-yl)oxy)-5-fluorobenzonitrile], the half-maximal inhibitory concentration (IC50) is 17000 nM.
The figure for `CNS(=O)(=O)c1ccc(Oc2cc(F)cc(F)c2)c2c1C(O)CC2` (stereo not shown) [Compound 211, 7-(3,5-Difluorophenoxy)-3-hydroxy-N-methyl-2,3-dihydro-1H-indene-4-sulfonamide] is 2100 nM.
The figure for `O=S(=O)(c1ccc(Oc2ccc(F)cc2)c2c1C(O)CC2)C(F)(F)F` (stereo not shown) [Compound 212, 4-(4-Fluorophenoxy)-7-((trifluoromethyl)sulfonyl)-2,3-dihydro-1H-inden-1-ol] is 670 nM.

As a reminder, the IC50 is the concentration that inhibits the measured activity by half. A low value points to greater potency.

The record behind these values is US9896418B2, “Aryl ethers and uses thereof” (Peloton Therapeutics, Inc., priority 2013, dated 2018).
